ChEMBL document CHEMBL3301451, “MMV Malaria Box gametocyte functional viability assay screening”

Assays:
Type in all cases: functional
Design in all cases: concentration or dose not given beside the values
[1] = test system: Plasmodium falciparum; assay: MMV: P. falciparum NF54 functionally mature Stage V gametocytes were incubated for 24 hr in the presence of the test compounds. Gamete formation was then triggered by addition of 2uM xantheurenic acid and temperature decrease to ~20C. Female gamete formation was recorded 24 hr later by automated microscopy detection of surface labelling of female gametes with a Cy3-conjugated antibody reactive to Pfs25. All compounds were tested in 4 independent experiments and data presented here is the mean.; settings: NF54, 24 h
[2] = test system: Plasmodium falciparum; assay: MMV: P. falciparum NF54 functionally mature Stage V gametocytes were incubated for 24 hr in the presence of the test compounds. Gamete formation was then triggered by addition of 2uM xantheurenic acid and temperature decrease to ~20C. Male gamete exflagellation was recorded and analysed by automated microscopy after 20 min. All compounds were tested in 4 independent experiments and data presented here is the mean.
[3] = test system: Plasmodium berghei; assay: MMV: P. berghei-infected blood was withdrawn from mice by cardiac pucture before being immediately added to ookinete culture medium containing test compounds. 26 hr later, GFP-positive ookinetes were identified and counted by automated microscopy. All compounds were tested in 4 independent experiments and data presented here is the mean.

SMILES	inhibition [1] [%]	inhibition [2] [%]	inhibition [3] [%]
COc1cccc(Cn2c(Oc3ccccc3)nc3c2c(=O)n(C)c(=O)n3C)c1	1.84	35.5	-11.71
CCOc1c(Cl)cc(CNCC(O)c2ccccc2)cc1OC (stereo unspecified)	-14.1	-11.9	-11.86
Cc1ccc(-c2cc3c(SCC(=O)Nc4cc(C(F)(F)F)ccc4Cl)nccn3n2)cc1	0.168	11.4	-10.47
CC1(c2ccccc2)Nc2ccccc2-c2nc3ccccc3n21 (stereo unspecified)	0.151	11.7	-11.28
COc1ccc(CCN2C(=O)c3[nH]nc(-c4cc(Cl)c(C)cc4O)c3C2c2ccccc2F)cc1 (stereo unspecified)	-34.2	-17.3	-13.65
COc1ccc(-n2ccnc2SCC(=O)Nc2cc(C)ccc2C)c(OC)c1	-9.31	12	-11.96
COc1cccc(Nc2nc(NCCO)c3ccccc3n2)c1.Cl	-29.6	-137	-13.29
Cc1ccc(-c2cc(C(=O)Nc3ccc(S(=O)(=O)N4CCCCC4)cc3)[nH]n2)c(O)c1	-11.2	7.64	-10.93
CCOc1ccc(N2C(N)=NC(N)=NC2(C)C)cc1.Cl	-42	66.8	-12.23
COc1cccc(Nc2nc(N)c3ccccc3n2)c1.Cl	-36.4	-35.2	-11.42
CCCCCCc1cc2cc(-c3csc(C=Cc4ccccc4)n3)c(=O)oc2cc1O	-35.1	-65.7	-12.07
CN(C)CCCNCc1ccc(-c2ccc(F)c(Cl)c2)o1.Cl	38.4	51.9	-12.37
CCOc1ccc(CN2CCN(CC(O)COc3ccc(OCC(O)CN4CCN(Cc5ccc(OCC)cc5)CC4)cc3)CC2)cc1 (stereo unspecified)	-37.4	-9.77	-13.58
CCN(CC)CCn1c(=N)n(CC(O)c2ccc(Cl)c(Cl)c2)c2ccccc21.Cl (stereo unspecified)	7.92	-66.5	-13
O=C(NC1CCN(Cc2ccccc2)CC1)c1cc(C(=O)NC2CCN(Cc3ccccc3)CC2)cc(C(=O)NC2CCN(Cc3ccccc3)CC2)c1	-6.87	57	-11.8
COc1ccc(CNC2CCN(c3ccc(NC(=O)c4cccc(Cl)c4)cc3)CC2)cc1OC	-36.5	15	-11.96
CCOc1ccc2nc(C)cc(Nc3ccc(N(C)C)cc3)c2c1.Cl	-42.3	-23.6	-13.58
CCOc1ccc(C2N(C)c3ccccc3N2C)cc1	9.89	-6.18	-11.42
Cc1ccc(OCCCCCCNCCO)c(C)c1	0.189	-19.1	-11.75
COCCn1c(C)nc2ccccc2c1=O	-15.4	22.3	-11.98
O=C(NC1CCN(Cc2ccccc2)CC1)c1cc(-c2cccnc2)nc2ccc(Cl)cc12	-32.7	-6.01	-13.2
Cc1ccc2cc3c(N)c4c(C)ccc(C)c4nc3nc2c1	-28.1	-9.27	-10.8
COc1ccc(C(=O)C(CCC(CNC(C)(C)C)C(=O)c2ccc(OC)cc2)CNC(C)(C)C)cc1 (stereo unspecified)	4.72	16.3	-12.62
COc1ccc(C2C(C(=O)Nc3cccc(OC)c3)c3ccccc3C(=O)N2C2CCCCC2)cc1 (stereo unspecified)	-25.1	46.2	-12.06

SMILES	inhibition [1] [%]	inhibition [2] [%]	inhibition [3] [%]
Cc1cc(C)c2c(c1)OCN(Cc1ccccc1Cl)C2	-10	25.8	-11.06
CCOc1ccccc1NC(=O)CN1CCN(C(=O)c2ccco2)CC1	12.9	19.3	-13.05
COc1cc(-c2nc(-c3ccccc3)c(-c3ccccc3)[nH]2)cc(OC)c1O	-41.1	5	-13.75
COc1cc(SC)ccc1C(=O)N1CCCC(C)C1 (stereo unspecified)	6.66	23.2	-13.09
CCc1ccc(CNCC(O)c2ccccc2)cc1.Cl (stereo unspecified)	-20.9	-40.9	-12.46
COc1ccccc1CNC(=O)C1c2ccccc2C(=O)N(CC(C)C)C1c1cccs1 (stereo unspecified)	-15.9	8.38	-12.03
CCOc1cc2c(cc1OCC)C(c1cc(Cl)c(O)c(OCC)c1)NCC2 (stereo unspecified)	14.7	22.4	-11.39
O=C(Nc1ccc(F)c(Cl)c1)Nc1ccc(Cl)c(Cl)c1	-12.2	15.7	-10.47
O=C(O)C(=O)O.Oc1ccc(Br)cc1CN1CCN(Cc2cccc(F)c2)CC1	-17.6	27.2	-11.78
COc1ccc(-c2cc(=O)oc3c4c(ccc23)OCN(Cc2ccc(F)cc2)C4)cc1	-14.6	-29.3	-11.79
COc1cc(CNCCc2ccc(Cl)cc2)cc(OC)c1O	-40.5	-14.1	-10.96
CCCCC(O)(c1ccc(Cl)cc1)C(CN1CCOCC1)c1ccc(Cl)cc1.Cl (stereo unspecified)	-22.4	-10.1	-12.32
CN(C)c1ccc(N2C(N)=NC(N)=NC2(C)C)cc1	-61.8	71.6	-13.4
CCOc1ccc(Nc2ccnc3cc(Cl)ccc23)cc1	-52.9	-4.26	-13.78
COc1ccc(Nc2nc(NCc3ccccc3)c3ccccc3n2)cc1	-14.7	-30.2	-12.84
COc1cc2c(cc1OC)C1=NNC(=O)C1=NC(C)(C)C2	-26.2	52.9	-11.77
CCOc1c(Cl)cc(CNC(C)C(O)c2ccccc2)cc1OC (stereo unspecified)	-16	11.3	-12.71
Br.Cc1ccc(C)c(-c2csc(Nc3ccc(C)c(C)c3)n2)c1	-46.3	20.6	-11.38
O=C(NCC1Cc2cccc(-c3ccncc3)c2O1)c1csc2c1CCCC2 (stereo unspecified)	-19.3	20.6	-13.38
Br.CCN(CC)S(=O)(=O)c1ccc(-c2csc(Nc3ccc(C)c(C)c3)n2)cc1	-51.5	21.9	-11.5
COc1ccc(NC(=O)C2c3ccccc3C(=O)N(CC(C)C)C2c2cccs2)cc1 (stereo unspecified)	13.9	22.3	-10.74
Cc1ccc(S(=O)(=O)c2c(COC(=O)c3cccc(C)c3)c(-c3ccccc3)nn2C)cc1	-31.3	-0.37	-10.49
CCCCN(CCCC)S(=O)(=O)c1ccc(NC(=O)c2ccco2)cc1	-25.1	30.9	-10.62
